{
  "source": "patent EP0124891A2",
  "about": "“Antimutagenic agent and method of inactivating the mutagenicity of foods and beverages by using said agent” (SUNTORY LIMITED, priority 1983, dated 1984)",
  "key": {"[1]": {"tested_on": "Neuros^pera crassa", "details": "cited from earlier work"}, "[2]": {"tested_on": "human cells", "details": "cited from earlier work"}, "[3]": {"tested_on": "mouse deodenum", "details": "0.1 % of hydrogen peroxide; cited from earlier work"}, "[4]": {"tested_on": "Salmonella typhimurium TA 100", "assay": "Mutagenicity and antimutagenic effect, Salmonella test (Ames), preincubation method, revertant colony count", "details": "Salmonella typhimurium TA 100 (histidine-requiring), 48 h, pH 7.4", "method": "Histidine-requiring Salmonella typhimurium TA 100 (hereunder S. TA 100) was used.\nInstant coffee powder was dissolved in distilled water. Predetermined amounts of wheat germ preparations were also dissolved in distilled water, and 50 µl of each solution was mixed with an equal amount of the aqueous coffee solution.\nRoasted coffee beans (20 g) were extracted with hot distilled water (250 ml), and the extract was filtered through coffee filter paper No. 12 manufactured by Kalita Co., Ltd. The extract was freeze-dried, and after measuring the weight of the dry product, it was dissolved in distilled water. Predetermined amounts of wheat germ preparations were also dissolved in distilled water, and 50 µl of each solution was mixed with an equal amount of the aqueous solution of coffee concentrate. […]\nTo 100 µl of each of the samples prepared in (iii)(a) to (f), 500 µl of 0.1 M sodium phosphate buffer (pH 7.4) plus 100 µl of a culture of S. TA 100 strain were added. […] After incubation at 37°C for 48 hours, the number of colonies forming on the plate was counted as revertants. The percent inhibition of mutagenicity can be calculated by the following formula, if necessary: [formula]\nA powder of extracted coffee beans (15 mg) as prepared by the method shown in I)(iii)(b) was dissolved in distilled water to make 50 µl. […] The mutagenicity of each mixture was determined by the method shown in I)(i)."}},
  "data": [
    {"compound": "OO", "note": "[Hydrogen peroxide, hydrogen peroxide]", "values": [
      {"measurement": "mutagenicity to Neurospora crassa", "setting": "[1]", "value": "mutagenic"},
      {"measurement": "clastogenicity to human cells", "setting": "[2]", "value": "clastogenic"},
      {"measurement": "carcinogenicity", "setting": "[3]", "value": "proved to cause malignant tumors"},
      {"measurement": "mutagenicity to S. TA 100", "setting": "[4]", "value": "160 revertants/10^8 survivors/Pmole"}
    ]}
  ]
}
